As usually defined, the CLint scaled is a measure of how fast metabolising enzymes remove a compound, apart from limits set by blood flow. Broadly, the half-life is the time needed for the level to fall by half in the phase considered.

Data set [1] in a line: Microsomal stability assay, human. The data set is classed as in vitro ADME. The settings on record: pH 7.4; human liver microsomes; 1 μM test compound; unit printed in b356 only. Here is the method: (§1) The liver microsomal incubation mixture was composed of liver microsomes (with a concentration of 0.5 mg microsomal protein/ml), the test compound (1 μM), MgCl2 (3 mM), EDTA (1 mM) in potassium phosphate buffer (100 mM, pH 7.4). Control substrates used were Midazolam and Ketanserin. The reaction was initiated with the addition of an NADPH regeneration solution (1.3 mM NADPH) and maintained at 37° C. with shaking. At five sequential time points ranging from 0 to 45 min, aliquots of the mixture (50 μL) were removed and quenched with acetonitrile (100 μL) containing an internal standard control (imipramine) Samples were analyzed after vortexing and centrifugation by liquid chromatography-mass spectrometry (LC-MS/MS). The in vitro t1/2 was then calculated and clearance followed literature.
(In general: Microsomes from liver hold many membrane-bound enzymes, among them those of drug oxidation.)

The test system of another data set is miR-10b. Nature of the data set: qRT-PCR of miR-10b in cerebral organoids co-cultured with brain cancer cells. The data set is classed as cell-based, human. The settings on record: 10 μM, 48 h. From the text: For co-culturing with cerebral organoids, the brain cancer cell lines U251 and LN229 were transduced with an RFP lentiviral vector expressing mCherry and luciferase, and sorted twice via an Aria Influx Cell Sorter.
Human induced pluripotent stem cell (iPSC) derived cerebral organoids were obtained, courtesy of Dr. Sanjay Singh and Dr. Frederick Lang in the Department of Neurosurgery at MD Anderson Cancer Center. Organoids were maintained in a specialized neural based media on a shaker inside a 37° C. incubator. After maturation, organoids were moved to 24-well ultra-low attachment plates, and individually co-cultured with 5×10^5−1×10^6 cells from brain cancer cell lines for approximately 48-72 h, until RFP signal was clear on the surface of the organoid, indicating cell attachment. Organoids were then moved to 6 well plates and grouped into triplicates within the well. The treatment regimen of control, and 4 was started, at an analogous schedule to in vitro experiments. For fixation and embedding for in situ hybridization, the organoids were processed using 4% PFA and placed in OCT in −80° C. for sectioning.
For orientation: Real-time PCR tracks product formation cycle by cycle.

The test system of data set [2] is U251 brain cancer cell line. Nature of the data set: Cell cycle analysis via flow cytometry. The settings on record: 5 μM. In kind it is cell-based, human. Here is the method:
(§2) In 6-well plates, 1×10^5 cells/mL were added into each well. After 24 h, sequential concentrations of DMSO and 4 based were administered and the plates were incubated for 48 h. The supernatant and adherent cells were collected and centrifugated. Each dose was done in triplicate, with each sample composing two wells. For apoptosis analysis, the supernatant was discarded after centrifugation and the pellet washed with PBS twice. Then, BD Annexin V-FITC/PI used to stain the cells for analysis via flow cytometry on the Gallios machine. For cell cycle analysis, after washing with PBS, cells were fixed with ethanol and incubated. They, were treated with RNase enzyme and analyzed.
Background: Flow cytometry measures light scatter and fluorescence of single cells or particles in a stream.

The next data set has as its system PTEN. Nature of the data set: Proteomics (RPPA), PTEN expression. In kind it is cell-based, human. More on the design: dose or concentration left out as unconfirmed. The settings on record: U251. Here is the method: (§3) Proteomics analysis was conducted at the Reverse Phase Protein Array Core facility at MD Anderson Cancer Center. Briefly, controls and treated samples were analyzed in triplicate for 486 unique antibodies. The outputs were then normalized for protein loading and transformed to the linear value, and the normalized data was logy transformed (log2(x+1)) and sorted by FDR-adjusted p-values with a significance level of p<0.05. Differentially expressed proteins between groups were identified using the moderated t-test from LIMMA package. […] Analyses and graphical representations were carried out in R. When preparing the data for analysis, the loge fold change was calculated and adjusted p-value was used for analysis. Gene symbols were converted using the DAVID bioinformatics resource and the clusterProfiler data visualization and analysis package was used for pathway enrichment analysis. For pathway analysis, the Hallmark gene set and Gene Ontology was used for gene set and pathway enrichment.

In data set [3] the test system is proteins on the PI3K/AKT pathway. Nature of the data set: Reverse phase protein array (RPPA), PI3K/AKT pathway. The settings on record: U251; 10 μM (FIG. 23); p<0.01. In kind it is cell-based, human. Here is the method:
as §3

The next data set concerns U251 brain cancer line. Nature of the data set: Clonogenic assay. The data set is classed as cell-based, human. The settings on record: dose-dependent, 1 μM up to 5 μM, two weeks. Here is the method:
In vitro clonogenic assays were conducted with adherent lines seeded in 12-well plates, treated for two weeks, and stained with crystal violet.

A further data set has as its system Drosha. Nature of the data set: Western blot, Drosha expression. The data set is classed as cell-based, human. The settings on record: AsPC1, AGS, U251, LN229. Here is the method:
Proteins are collected from cultured cells and lysed with 10× Lysis Buffer (Cell Signaling) freshly supplemented with a complete protease inhibitor cocktail and phosphatase inhibitors (Sigma). Bradford assay is used to measure protein concentration. Proteins are separated by polyacrylamide gel (Bio-rad) electrophoresis and were transferred to a 0.2 μm nitrocellulose membrane (Bio-rad). Quantification of protein expression was conducted using the image analysis software ImageJ.

In a further data set the test system is LN229 cell line. Nature of the data set: MTS proliferation assay, LN229. In kind it is cell-based, human. The settings on record: 5 and 10 μM, beginning at 48 h of treatment. Here is the method:
IC50 dose-response curves were determined using the cell proliferation assay system. Briefly, 5,000 or 10,000 cells of each cell line were plated in 96-well microculture plates in replicates of either 4 or 6. When cells became adherent, either 5 or 10 sequentially decreasing doses of the small molecule miRNA inhibitor were diluted into new media and added to individual wells. After either 24 or 48 hours, of a tetrazolium salt such as MTS, MTT, or WST-8 was added to each well at the same time of day as treatment and incubated for either 2 or 3 h at 37° C. The OD, measuring at the appropriate wavelength for the dye, was read at on a microplate spectrophotometer.
Cell proliferation is determined using a colorimetric assay. A tetrazolium salt such as MTS, MTT, or WST-8 is reduced by dehydrogenase activities in cells to give a formazan dye, which is soluble in the tissue culture media. The amount of the formazan dye (generated by the activities of dehydrogenases in cells, and directly proportional to the number of living cells) is measured after 3 h of incubation. The OD is read at 450 nm on a microplate spectrophotometer and growth values (%) are calculated as (OD treated cells/OD untreated cells)×100. The experiments are performed in triplicate. […] The OD is read at 450/550 nm on a microplate spectrophotometer, after one to seven days of the treatment. […]

Data set [4] is described as follows: Microsomal stability assay, rat. In kind it is in vitro ADME. The settings on record: 1 μM test compound, unit printed in b356 only. Here is the method: as §1
A further data set concerns U251 cell line. Nature of the data set: Annexin V/PI apoptosis assay by flow cytometry, U251. The settings on record: 48 h. In kind it is cell-based, human. Here is the method: as §2
The mark [5] stands for this setting: rat, liver microsomes, pH 7.4, rat liver microsomes.

For `Cc1ccc(F)c(NC(=O)Nc2ccc(-c3cccc4cn[nH]c34)cc2)c1` [Example 4, 1-(4-(1H-indazol-7-yl)phenyl)-3-(2-fluoro-5-methylphenyl)urea], in data set [1], the CLint scaled at 1 μM was determined as 0.894 L/h/kg and the half-life at 1 μM worked out at 1.93 h. The “miR-10b levels (qRT-PCR)” value in the data set on miR-10b (cerebral organoids co-cultured with LN229) was “Significant downregulation of miR-10b”. The “miR-10b levels (qRT-PCR)” value in the data set with miR-10b (cerebral organoids co-cultured with U251) was “Significant downregulation of miR-10b”. Moreover, the “cell cycle phase distribution” value in [2] is recorded as “clear increase shown at the G2/M phase”. Moreover, the “PTEN expression (proteomics)” value in the data set on PTEN is reported as “significantly upregulated”. For the same compound, the “expression of proteins on the PI3K/AKT pathway (RPPA)” value in data set [3] is listed as “ten of the twelve proteins showing significant downregulation”. Besides, in the data set with U251 brain cancer line, the formation of colonies entry is “suppressed the formation of colonies”. The “Drosha expression (Western blot)” value with Drosha is “little to no variation”. Further, in the data set on LN229 cell line, the “proliferation (MTS), every 24 h over 96 h” value is listed as “significant difference in proliferation”. In data set [4] (rat liver microsomes), this compound gave a CLint of 2.47 L/h/kg and a Half-life of 1.01 h. In data set [4] (setting [5]), the CLint scaled at 1 μM was found to be 2.46 L/h/kg and the half-life at 1 μM was determined as 1 h. The “increase in total apoptotic cells compared to control” value in the data set with U251 cell line (5 μM) was “approximately 4.5 fold”. Moreover, the “total apoptotic cells at 10 μM compared with 5 μM” value with U251 cell line (10 μM) was “approximately the same”.

(Values after US20230145868A1, “UREA INHIBITORS OF MICRO-RNA” (Board of Regents, The University of Texas System, priority 2020, published 2023).)
